Series [1] has as its system human spermatozoa in semen samples. The experiment in a line: Sperm motility after cooling in freezing buffer with HU before cryopreservation (Working Example 3). Format: cell-based. On the procedure:
(§1) Post semen analysis was conducted of discarded and de-identified semen samples from Ovation Fertility Center that met the World Health Organization (WHO) criteria for normal semen samples. Those semen samples that met the WHO criteria for normal were divided into two halves. One half was subjected to freezing with TEST-Yolk buffer (freezing buffer [FB]; Irvine Scientific, CA) containing 12% glycerol as cryoprotectant (control group). The remaining half of each sample was frozen with experimental freezing buffer composed of FB+HU (Sigma Aldridge, St. Louis; treatment group). Both control and experimental buffers were added on a 1:1 ratio to respective semen samples (v/v) in a dropwise manner. The final glycerol concentration in the semen+FB was 6%, and the final HU concentration in semen+experimental freezing buffer was 1 μM to use a concentration of HU that is effective in inhibiting HIV replication. Pre-freeze sperm motility was determined for each sample prior to initiating the cooling step of the freezing procedure. Samples in the control and treatment group were cooled for 24 hours to slow the HU-induced vigorously motile cells in the treatment group. Subsequently, post cooling motility was determined prior to liquid nitrogen vapor phase freezing for 30 minutes before being stored immersed in liquid nitrogen (LN) for at least 24 hours before being thawed for analysis. Samples were thawed at room temperature for 35 minutes prior to motility analysis.

The subject of series [2] is rats. The conditions noted are these: single dose; cited from earlier work.
In series [3] the test system is human spermatozoa in semen samples. The experiment in a line: Post-cool and post-thaw sperm motility after cryopreservation in freezing buffer with HU (Working Example 4). In kind it is cell-based. To be noted: FB+HU, final HU 1 μM, listed as HU. The protocol: as §1, with “half” for “half was”, “6%” for “6%,”, “arm” for “step”, “HU induced” for “HU-induced”, “LN” for “liquid nitrogen (LN)”, “Samples were thawed at room temperature for 35 minutes prior to motility analysis.” left out

For series [4], the system named is human sperm. The experiment in a line: Overall sperm motility after 24 hour culture with HU at HIV-suppressing concentrations (Working Example 2). In kind it is cell-based. To be noted: HTF-buffer, 37° C., control 70.3. The protocol: Normal human semen was collected in 15 mL conical centrifuge tubes. Highly motile (i.e., Grade a) sperm were isolated and collected from the semen. The isolated highly motile sperm were washed in HTF medium containing 0.5% BSA (HTF-HEPES; pH 7.4) by centrifugation and suspended in bicarbonate (25 mM)-buffered HTF containing 0.5% (5 mg/ml) BSA (36; pH 7.4). Subsequently, each sperm suspension was incubated at 37° C. in an atmosphere of 5.0% CO2 in humidified air until aliquoted into the different treatment groups: a control group and a hydroxyurea processed group.
(§2) The control group was cultured in HTF-buffer containing 0 μg HU/mL at 37° C. in an atmosphere of 5.0% CO2 in humidified air for 24 hours. After the 24 hour culture, the control sperm were evaluated for pattern and degree of motility.
The hydroxyurea processed groups were cultured in HTF-buffer in two groups containing different concentrations of HU: (1) 1.0 mM HU and (2) 2.0 mM HU. The groups were cultured at 37° C. in an atmosphere of 5.0% CO2 in humidified air for 24 hours. After the 24 hour culture, the hydroxyurea processed sperm were evaluated for pattern and degree of motility.
Thus, it had been previously believed that HU was an unsuitable agent to suppress HIV replication and/or activation in semen, or to reduce the risk of HIV transmission, via HU treatment of reproductive cells.

The subject of series [5] is human sperm. The experiment in a line: Sperm motility after 24 hour culture in HTF-buffer containing HU (Working Example 1). The conditions noted are these: 18 μg HU/mL, 37° C. In kind it is cell-based. On the procedure:
Human sperm was processed with HU to show enhanced motility over human sperm not processed with HU. Normal human semen was collected in 15 mL conical centrifuge tubes. Highly motile (i.e., Grade a) sperm were isolated and collected from the semen. The isolated highly motile sperm were washed in an HTF medium (HTF-HEPES; pH 7.4) containing 0.5% Bovine Serum Albumin (“BSA”) by centrifugation and suspended in bicarbonate (25 mM)-buffered HTF containing 0.5% (5 mg/ml) BSA (36; pH 7.4). Subsequently, each sperm suspension was incubated at 37° C. in an atmosphere of 5.0% CO2 in humidified air until aliquoted into the different treatment groups: a control group and a hydroxyurea processed group.
as §2
The hydroxyurea processed group was cultured in HTF-buffer containing 18 μg HU/mL at 37° C. in an atmosphere of 5.0% CO2 in humidified air for 24 hours. After the 24 hour culture, the hydroxyurea processed sperm were evaluated for pattern and degree of motility. […] The percentage of motile spermatozoa was calculated by multiplying the ratio of motile to 100 spermatozoa counted by 100.
The progressive motility of the control group sperm was higher (P<0.001; based on paired t-test comparison) than the progressive motility of the hydroxyurea processed group sperm. […] On the other hand, most of the sperm cells in the control buffer remained in a progressive motility state (motility pattern observed among sperm cells that have not acquired the ability to fertilize mature eggs). These findings are clinically significant, as progressive sperm motility is a determinant of ability of spermatozoa to penetrate cervical mucus on towards migration to the fertilization site (fallopian tubes), while that for hyperactive sperm motility (capacitation) is the motion pattern characteristic of spermatozoa that have attained the ability to fertilize mature eggs.

Series [6] relates to rats. The experiment in a line: Oral LD50 in rats. The conditions noted are these: rat oral LD50 divided by 1000.

Data on 1 compound can be found in patent publication US11926846B2, “Hydroxyurea to enhance sperm cells” (Meharry Medical College, priority 2017, dated 2024).

Molecules are shown by their SMILES. Values joined by “and” are separate entries in the source; they are usually repeats but may differ in a detail not shown here. Equal values may be shown once. A value given as a limit tells only on which side of the number the result lay.

On to `NC(=O)NO` [hydroxyurea, Hydroxyurea], for which, in series [1] (HU treated, video stills over about 9 seconds, control low level), the “level of overall spermatozoa with motility (FIGS. 2A-2H)” value is “moderate to high level”. Besides, the “motility maintained of the initial population of motile spermatozoa (pre-freeze)” value in series [1] (freezing medium supplemented with HU, control 28-45%) is on record as 76-84%. Besides, in series [1] (frozen in FB+HU, post-thaw), the “longevity among post-thaw spermatozoa versus control group” value is given as “higher”. For the same compound, the “mean of the post-cool motility relative to post cool motility (survival of cooling process in percentage)” value in series [1] (mean of seven HU treated samples, control 50.71) stood at 71.91%. Also, the “oral LD50” value with rats [2] is 5780 mg/kg. Further, in series [3] (liquid nitrogen at least 24 hours, thawed 35 minutes at room temperature, first figure of cell), the “Post-thaw Motility (HU; %)” value is 44% and 50% and 32%. The “Post-thaw Survival Relative to Post-cool Motility (HU; %)” value in series [3] (post-thaw, second figure of cell) was 71% and 76% and 49%. Further, the values for the overall motility in the series on human sperm [4] (1.0 mM HU) and in the series on human sperm [4] (2.0 mM HU) were 66.6 and 68.3, respectively. Further, the “overall percentage motility (progressively + hyperactively motile spermatozoa)” value with human sperm [5] (5.0% CO2, 24 hours, control 75.4) was 79.0%. Further, the hyperactive motility in the series on human sperm [5] (24 hours, control 23.0) is 41.3%. Besides, the progressive sperm motility in the series with human sperm [5] (24 hours, control 51.7±10.2) turned out to be 37.7%. Besides, the “maximum effective dose (rough maximum safe dose for humans)” value with rats [6] was ≤ 5.78 mg/kg.
